From patent US7341983B2, “Antimicrobial compositions including carboxylic acids and alkoxylated amines” (Ecolab Inc., priority 2003, dated 2008)

Test: Solution appearance with various types and amounts of alkoxylated amines
Format: physicochemical
Settings: 2.4 wt-% octanoic acid, 21 wt-% phosphoric acid (75%), 8.0 wt-% citric acid, remainder water
Excerpt: Test compositions were made with varying amounts and types of alkoxylated amines. These were made to include 2.4 wt-% octanoic acid, 21 wt-% phosphoric acid (75%), 8.0 wt-% citric acid, varying amounts of alkoxylated amine, with the remainder water.

For “iso-(2-hydroxyethyl) isodecyloxypropylamine [Alkoxylated Amine 6]”, the Solution appearance (2.5 wt-% alkoxylated amine) was “hazy yellow”, the Solution appearance (3 wt-% alkoxylated amine) was “hazy yellow” and the Solution appearance (3.5 wt-% alkoxylated amine) was “hazy”. The Solution appearance (4 wt-% alkoxylated amine) was “milky yellow”, the Solution appearance (4.5 wt-% alkoxylated amine) was “opaque-yellow” and the Solution appearance (5 wt-% alkoxylated amine) was “separated”.
